Test results: patent US9409905B2, “Antibacterial compounds and methods for use” (PTC THERAPEUTICS, INC., priority 2011, dated 2016)
In brackets after ≈: the same amount, converted by molar mass.

Key:
[1] = system: Escherichia coli (E. coli) BAS849; assay: Antibacterial activity, microbroth dilution MIC (Table 1); format: cell-based; conditions: microbroth dilution, super sensitive Gram-negative E. coli BAS849, read-out: MIC, BAS849
Procedure, shortened: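 Microbroth dilution was used. MIC, in μg/mL, is the lowest drug concentration preventing macroscopically visible growth under the test conditions.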

[2] = system: Staphylococcus aureus (S. aureus) 29213; assay: as above; format: cell-based; conditions: microbroth dilution, Gram-positive S. aureus 29213, read-out: MIC, 29213
Procedure, shortened: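 Broth microdilution; endpoint = no macroscopic growth; value = lowest inhibiting concn, μg/mL.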

E. coli 25922 = assay: as above; format: cell-based, Escherichia coli; conditions: Escherichia coli; microbroth dilution; control Gram-negative E. coli 25922 strain; read-out: MIC, 25922
Procedure, shortened: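 In a microbroth dilution test, the minimum inhibitory concentration was defined as the lowest compound level preventing growth seen by eye, and was given in μg/mL.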

E. coli LZ3111 = assay: Antibacterial activity, MIC, quinolone resistant strain (Table 2); format: cell-based; conditions: Escherichia coli, LZ3111, read-out: MIC LZ3111
Procedure, shortened: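 MIC values (μg/mL) came from a microbroth dilution assay, scored as the lowest drug concentration at which no growth was visible by eye.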

[3] = system: Acinetobacter baumannii (A. baumannii) BAA747; assay: Antibacterial activity, MIC (Table 4); format: cell-based; conditions: A. baumannii BAA747, read-out: MIC, BAA747
From the text: (§1) The antibacterial activity from a microbroth dilution method may be presented as the minimum inhibitory concentration (MIC in μg/mL). The MIC value is the lowest concentration of drug which prevents macroscopically visible growth under test conditions.
(§2) Antibacterial activity of test compounds against the Gram-negative Acinetobacter baumannii (A. baumannii) BAA747 and Klebsiella pneumoniae (K. pneumoniae) 35657 bacterium and the resistant A. baumannii MXX2240 and K. pneumoniae MXX1232 strains are shown in Table 4. The MMX strains are multi-drug resistant clinical isolates.

[4] = system: Klebsiella pneumoniae (K. pneumoniae) 35657; assay: Antibacterial activity, MIC (Table 4); format: cell-based; conditions: K. pneumoniae 35657, read-out: MIC, 35657
From the text: as §1, §2

A. baumannii MXX2240 = assay: Antibacterial activity, MIC, resistant strain (Table 4); format: cell-based; conditions: Acinetobacter baumannii, MXX2240; resistant A. baumannii MMX2240, multi-drug resistant clinical isolate; read-out: MIC, MMX2240
From the text: as §1, §2

K. pneumoniae MXX1232 = assay: as above; format: cell-based; conditions: Klebsiella pneumoniae, MXX1232; resistant K. pneumoniae MMX1232, multi-drug resistant clinical isolate; read-out: MIC, MMX1232
From the text: as §1, §2

[5] = system: Pseudomonas aeruginosa (P. aeruginosa) 27853; assay: Antibacterial activity, MIC (Table 5); format: cell-based; conditions: P. aeruginosa 27853, read-out: MIC, 27853
From the text: as §1
Antibacterial activity of test compounds against the Gram-negative bacterium Pseudomonas aeruginosa (P. aeruginosa) 27853 is shown in Table 5.

CCc1c(-c2ccc3c(c2)cc2n3C[C@H](CN)[C@@H]2NC)[nH]c(=O)c(C(=O)O)c1O.Cl.Cl (relative stereo) [Cpd 421, 6-(cis-2-(aminomethyl)-1-(methylamino)-2,3-dihydro-1H-pyrrolo[1,2-a]indol-7-yl)-5-ethyl-4-hydroxy-2-oxo-1,2-dihydropyridine-3-carboxylic acid bis-hydrochloride]
MIC [1]: 1 to 3.5 µg/mL | MIC [2]: 12.5 to 150 µg/mL | MIC (E. coli 25922): 3.5 to 12.5 µg/mL | MIC (E. coli LZ3111): 12.5 to 150 µg/mL | MIC [3]: 12.5 to 150 µg/mL | MIC [4]: 12.5 to 150 µg/mL | MIC (A. baumannii MXX2240): 12.5 to 150 µg/mL | MIC (K. pneumoniae MXX1232): 12.5 to 150 µg/mL | MIC [5]: 12.5 to 150 µg/mL

CCc1c(-c2ccc3c(c2)cc2n3C[C@H](N)C[C@H]2NC)[nH]c(=O)c(C(=O)O)c1O.Cl.Cl (relative stereo) [Cpd 422, 6-(trans-7-amino-9-(methylamino)-6,7,8,9-tetrahydropyrido[1,2-a]indol-2-yl)-5-ethyl-4-hydroxy-2-oxo-1,2-dihydropyridine-3-carboxylic acid bis-hydrochloride]
MIC [1]: 1 to 3.5 µg/mL | MIC [2]: 12.5 to 150 µg/mL | MIC (E. coli 25922): 12.5 to 150 µg/mL | MIC (E. coli LZ3111): 12.5 to 150 µg/mL | MIC [3]: 12.5 to 150 µg/mL | MIC [4]: 3.5 to 12.5 µg/mL | MIC (A. baumannii MXX2240): 12.5 to 150 µg/mL | MIC (K. pneumoniae MXX1232): 12.5 to 150 µg/mL | MIC [5]: 12.5 to 150 µg/mL

CCc1c(-c2cn(C)c3ccccc23)[nH]c(=O)c(C(=O)O)c1O [Cpd 14, 5-ethyl-4-hydroxy-6-(1-methyl-1H-indol-3-yl)-2-oxo-1,2-dihydropyridine-3-carboxylic acid]
MIC [1]: 1 to 3.5 µg/mL (≈ 3.2 to 11.2 µM) | MIC [2]: 3.5 to 12.5 µg/mL (≈ 11.2 to 40 µM) | MIC (E. coli 25922): 12.5 to 150 µg/mL (≈ 40 to 480 µM) | MIC (E. coli LZ3111): 12.5 to 150 µg/mL (≈ 40 to 480 µM) | MIC [3]: 12.5 to 150 µg/mL (≈ 40 to 480 µM) | MIC [4]: 12.5 to 150 µg/mL (≈ 40 to 480 µM) | MIC (A. baumannii MXX2240): 12.5 to 150 µg/mL (≈ 40 to 480 µM) | MIC (K. pneumoniae MXX1232): 12.5 to 150 µg/mL (≈ 40 to 480 µM) | MIC [5]: 12.5 to 150 µg/mL (≈ 40 to 480 µM)

CCc1cc(C(=O)O)c(=O)[nH]c1-c1cnc2c(ccn2C)c1 [Cpd 31, 5-ethyl-6-(1-methyl-1H-pyrrolo[2,3-b]pyridin-5-yl)-2-oxo-1,2-dihydropyridine-3-carboxylic acid]
MIC [1]: 1 to 3.5 µg/mL (≈ 3.36 to 11.8 µM) | MIC [2]: 12.5 to 150 µg/mL (≈ 42 to 505 µM) | MIC (E. coli 25922): 12.5 to 150 µg/mL (≈ 42 to 505 µM) | MIC (E. coli LZ3111): 12.5 to 150 µg/mL (≈ 42 to 505 µM) | MIC [3]: 12.5 to 150 µg/mL (≈ 42 to 505 µM) | MIC [4]: 12.5 to 150 µg/mL (≈ 42 to 505 µM) | MIC (A. baumannii MXX2240): 12.5 to 150 µg/mL (≈ 42 to 505 µM) | MIC (K. pneumoniae MXX1232): 12.5 to 150 µg/mL (≈ 42 to 505 µM) | MIC [5]: 12.5 to 150 µg/mL (≈ 42 to 505 µM)

CCc1cc(C(=O)O)c(=O)[nH]c1-c1ccc2ncnn2c1.Cl [Cpd 49, 6-([1,2,4]triazolo[1,5-a]pyridin-6-yl)-5-ethyl-2-oxo-1,2-dihydropyridine-3-carboxylic acid hydrochloride]
MIC [1]: 12.5 to 150 µg/mL | MIC [2]: 12.5 to 150 µg/mL | MIC (E. coli 25922): 12.5 to 150 µg/mL | MIC (E. coli LZ3111): 12.5 to 150 µg/mL | MIC [3]: 12.5 to 150 µg/mL | MIC [4]: 12.5 to 150 µg/mL | MIC (A. baumannii MXX2240): 12.5 to 150 µg/mL | MIC (K. pneumoniae MXX1232): 12.5 to 150 µg/mL | MIC [5]: 12.5 to 150 µg/mL

CCc1cc(C(=O)O)c(=O)[nH]c1-c1ccc2nncn2c1.Cl [Cpd 50, 6-([1,2,4]triazolo[4,3-a]pyridin-6-yl)-5-ethyl-2-oxo-1,2-dihydropyridine-3-carboxylic acid hydrochloride]
MIC [1]: 12.5 to 150 µg/mL | MIC [2]: 12.5 to 150 µg/mL | MIC (E. coli 25922): 12.5 to 150 µg/mL | MIC (E. coli LZ3111): 12.5 to 150 µg/mL | MIC [3]: 12.5 to 150 µg/mL | MIC [4]: 12.5 to 150 µg/mL | MIC (A. baumannii MXX2240): 12.5 to 150 µg/mL | MIC (K. pneumoniae MXX1232): 12.5 to 150 µg/mL | MIC [5]: 12.5 to 150 µg/mL

CCc1cc(C(=O)O)c(=O)[nH]c1-c1ccc2nccn2c1.Cl [Cpd 51, 5-ethyl-6-(imidazo[1,2-a]pyridin-6-yl)-2-oxo-1,2-dihydropyridine-3-carboxylic acid hydrochloride]
MIC [1]: 12.5 to 150 µg/mL | MIC [2]: 12.5 to 150 µg/mL | MIC (E. coli 25922): 12.5 to 150 µg/mL | MIC (E. coli LZ3111): 12.5 to 150 µg/mL | MIC [3]: 12.5 to 150 µg/mL | MIC [4]: 12.5 to 150 µg/mL | MIC (A. baumannii MXX2240): 12.5 to 150 µg/mL | MIC (K. pneumoniae MXX1232): 12.5 to 150 µg/mL | MIC [5]: 12.5 to 150 µg/mL

CCc1cc(C(=O)O)c(=O)[nH]c1-c1cnc2c(c1)ncn2C [Cpd 52, 5-ethyl-6-(3-methyl-3H-imidazo[4,5-b]pyridin-6-yl)-2-oxo-1,2-dihydropyridine-3-carboxylic acid]
MIC [1]: 12.5 to 150 µg/mL (≈ 41.9 to 503 µM) | MIC [2]: 12.5 to 150 µg/mL (≈ 41.9 to 503 µM) | MIC (E. coli 25922): 12.5 to 150 µg/mL (≈ 41.9 to 503 µM) | MIC (E. coli LZ3111): 12.5 to 150 µg/mL (≈ 41.9 to 503 µM) | MIC [3]: 12.5 to 150 µg/mL (≈ 41.9 to 503 µM) | MIC [4]: 12.5 to 150 µg/mL (≈ 41.9 to 503 µM) | MIC (A. baumannii MXX2240): 12.5 to 150 µg/mL (≈ 41.9 to 503 µM) | MIC (K. pneumoniae MXX1232): 12.5 to 150 µg/mL (≈ 41.9 to 503 µM) | MIC [5]: 12.5 to 150 µg/mL (≈ 41.9 to 503 µM)
